In ChEMBL document CHEMBL4699608, “Aliphatic amines are viable pro-drug moieties in phosphonoamidate drugs” (Bioorg Med Chem Lett, 2020) one finds Activity and IC50 data, which are given here for 15 compounds.

Active and inactive are the calls of the source. The calls are words filed in the database; no cut-off is given here.

The first assay has as its system D-423MG. The experiment in a line: Cytotoxicity against human D423 cells with HINT1 deficient.
Details: not given
The class given is functional, cell-based.
As for `CC(C)(C)C(=O)OCOP(=O)(NCC1CC1)C1CCCN(O)C1=O` (configuration not stated), the result was Active.

The subject of a further assay is D-423MG. As to the kind of experiment: Cytotoxicity against human D423 cells with PAPSS1 deficient.
Details: not given
The class given is functional, cell-based.
Take `CC(C)(C)C(=O)OCOP(=O)(NCC1CC1)C1CCCN(O)C1=O` (configuration not stated): the result was Active.

Another assay relates to D-423MG. The experiment in a line: Cytotoxicity against human D423 cells with ENO1 deficient assessed as reduction in cell viability incubated for 5 days by crystal violet staining based spectrophotometry. The class given is functional. Conditions: 120 h.
The term IC50 denotes the concentration that inhibits the measured activity by half. As to `CC(C)(C)C(=O)OCOP(=O)(NCc1ccc(F)c(F)c1)C1CCCN(O)C1=O` (configuration not stated), the 50% inhibitory concentration (IC50) came out at 84.6 nM.

Take `CC(C)(C)C(=O)OCOP(=O)(NCc1ccc(F)cc1F)C1CCCN(O)C1=O` (configuration not stated): the concentration for half-maximal inhibition (IC50) was found to be 80.3 nM.

In the case of `CC(C)OC(=O)C(C)NP(=O)(OCOC(=O)C(C)(C)C)C1CCCN(O)C1=O` (configuration not stated), the IC50 is 258 nM.

On to `CC(C)(C)C(=O)OCOP(=O)(NC1CCC1)C1CCCN(O)C1=O` (configuration not stated), for which the half-maximal inhibitory concentration (IC50) was determined as 121 nM.

As to `CNP(=O)(OCOC(=O)C(C)(C)C)C1CCCN(O)C1=O` (configuration not stated), the half-inhibitory concentration (IC50) worked out at 115 nM.

For the compound `CC(C)(C)C(=O)OCOP(=O)(OCOC(=O)C(C)(C)C)C1CCCN(O)C1=O` (configuration not stated), the 50% inhibitory concentration (IC50) stood at 17.3 nM.

Regarding `CC(C)(C)C(=O)OCOP(=O)(NCc1cccc(F)c1)C1CCCN(O)C1=O` (configuration not stated), the IC50 worked out at 103 nM.

Regarding `CCCCCCCCCCCCNP(=O)(O)C1CCCN(O)C1=O` (configuration not stated), the IC50 worked out at 24 nM.

Take `O=C1C(P(=O)(O)NCC2CC2)CCCN1O` (configuration not stated): the concentration for half-maximal inhibition (IC50) stood at 8830 nM.

With `CC(C)(C)C(=O)OCOP(=O)(NCc1ccccc1)C1CCCN(O)C1=O` (configuration not stated), the IC50 amounted to 244 nM.

With `CC(C)(C)C(=O)OCOP(=O)(NCC1CCCCC1)C1CCCN(O)C1=O` (configuration not stated), the IC50 was found to be 81.1 nM.

`CC(C)(C)C(=O)OCOP(N)(=O)C1CCCN(O)C1=O` (configuration not stated): the IC50 worked out at 62.6 nM.

In the case of `CC(C)(C)C(=O)OCOP(=O)(NCc1ccc(F)cc1)C1CCCN(O)C1=O` (configuration not stated), the IC50 is 129 nM.

On to `CC(C)(C)C(=O)OCOP(=O)(NCc1ccccc1F)C1CCCN(O)C1=O` (configuration not stated), for which the IC50 was found to be 196 nM.

A further assay relates to D-423MG. As to the kind of experiment: Cytotoxicity against human D423 cells with CES2 deficient. The class given is functional, cell-based.
Details: not given
On to `CC(C)(C)C(=O)OCOP(=O)(NCC1CC1)C1CCCN(O)C1=O` (configuration not stated), for which the result was Active.
